Patent US12070445B2, “System and assay for monitoring production/release of membrane-lytic toxins in bacteria and compounds for modulating same” (priority 2021, dated 2024)
Entries after “also recorded” stand apart in the source; their conditions may differ. Where a SMILES comes first, the peptide text is derived from it. Bridges are numbered along the chain shown (N, C = ends).

Experiments:
[1] = test system: WT S. aureus (RN6390b); assay: Microtiter plate (96-well) vesicle lysis assay with WT S. aureus; type: cell-based
Procedure: (§1) Compound handling and preparation. OdDHL and BHL (Hodgkinson et al., 2011), S. aureus AIP and peptide derivatives 1-5 (Tal-Gan et al., 2013, Tal-Gan et al., 2016, Vasquez and Blackwell, 2019), and compounds 7-9 (Welsh and Blackwell, 2016a, Boursier et al., 2018, Manson et al., 2020) were synthesized using previously described methods. PQS and compound 6 were purchased from Millipore Sigma and AK Scientific respectively. Compounds were stored dry at −20° C. until needed and then dissolved in DMSO. DMSO stock solutions were prepared at concentrations that varied with compound potency and apparent solubility. Final in-well compound concentrations for 96-well vesicle lysis assays, unless noted otherwise, were: 10 μM for AIP, OdDHL, and PQS; 1 mM for BHL; 100 nM for 1-4; 10 μM for 5; 20 μM for 6; 100 μM for 7 and 8; and 200 μM for 9.
(§2) Production of phospholipid vesicles with encapsulated calcein. Large unilamellar vesicles (LUVs) were produced by adapting a freeze-thaw and vesicle extrusion procedure (Mayer et al., 1986). Briefly, stock solutions of phospholipids (DOPC, DPPC, DPPE, or cholesterol) in chloroform were mixed to the desired lipid compositions (70 mol % DOPC/30 mol % cholesterol for S. aureus vesicles or 68 mol % DPPC, 30 mol % cholesterol, 2 mol % DPPE for P. aeruginosa vesicles), and the chloroform was removed using an N2 stream or rotary evaporation followed by drying for at least one hour under vacuum. Self-quenching solutions of calcein were prepared by combining calcein and PBS or a specially prepared calcein buffer (1 mM EDTA, 10 mM Trisbase, and 100 mM NaCl; pH 8) to a calcein concentration of […]. The resulting solutions were titrated with 10 M aqueous NaOH until all calcein was dissolved and the solution reached pH 7.4 or pH 8 for PBS and the calcein buffer, respectively. The resulting calcein solutions were added to the dried phospholipid films (PBS for S. aureus formulations and the calcein buffer for the P. aeruginosa formulations) for a final lipid concentration of 5 mg/mL. The resulting lipid solutions were vortexed vigorously and briefly sonicated in a bath sonicator to form a turbid vesicle suspension. The vesicle suspensions were then freeze-thawed five times by alternately immersing them into an iPrOH/dry ice bath and a warm water bath (˜60° C.). Vesicles prepared for continuous time-course experiments were passed at least 5 times through a 100 nm polycarbonate filter using a Mini-prep extruder. Vesicles prepared for the high-throughput screen were passed through the filter 3 times. The resulting vesicles were then separated from external, unloaded calcein using a hand-packed Sephadex-G50 size exclusion chromatography column. The concentration of phospholipid in the solution was quantified using ^31P NMR (per the above protocol), and the phospholipid concentration was adjusted to 2 mM for unsaturated lipid solutions and 1 mM for saturated lipid solutions in their respective buffers. The resulting vesicles were characterized by dynamic light scattering and found to have a hydrodynamic diameter of ˜150 nm (FIGS. 3A-3C), which agrees with previous reports describing vesicle production using a similar method (Lapinski et al., 2007).
Microtiter plate vesicle lysis assays. Portions of media (2 or 10 mL) were inoculated with individual bacterial colonies and allowed to shake overnight. From these overnight cultures, subcultures were prepared by diluting the cultures 1:50 (v/v) in fresh BHI for S. aureus or 1:100 (v/v) in fresh LB for P. aeruginosa. An aliquot of each subculture (178 μL) was added to 20 μL of vesicle suspension and 2 μL of compound solution (dissolved in DMSO at 100× working concentration) in a clear-bottomed, black 96-well microtiter plate (Corning 3904). For controls, DMSO (vehicle) or Triton X-100 (1% final concentration) was substituted for compound. […]

[2] = test system: S. aureus; assay: S. aureus growth (OD600); type: cell-based
Procedure: (§3) Microtiter plate vesicle lysis assays. Portions of media (2 or 10 mL) were inoculated with individual bacterial colonies and allowed to shake overnight. From these overnight cultures, subcultures were prepared by diluting the cultures 1:50 (v/v) in fresh BHI for S. aureus or 1:100 (v/v) in fresh LB for P. aeruginosa. An aliquot of each subculture (178 μL) was added to 20 μL of vesicle suspension and 2 μL of compound solution (dissolved in DMSO at 100× working concentration) in a clear-bottomed, black 96-well microtiter plate (Corning 3904). For controls, DMSO (vehicle) or Triton X-100 (1% final concentration) was substituted for compound. Plate covers were coated with an aqueous solution of 0.05% Triton X-100 and 20% ethanol (Brewster, 2003) to prevent the accumulation of condensation. Plates were incubated in a Biotek Synergy 2 microplate reader running Gen5 1.05 software at 37° C. with shaking at the high-speed setting. Fluorescence (excitation 500 nm, emission 540 nm) and OD600 (absorbance at 600 nm) measurements were recorded every 15 minutes for 12 hours. All experiments were performed in technical triplicate in a single microtiter plate. Biological triplicates were then obtained over three days. GraphPad Prism software (v. 9) was used to generate curves and calculate standard error.
High-throughput screening and follow-up analysis protocols. Test compounds and positive control 1 were delivered in 2.5 nL aliquots of DMSO with an Echo 550 liquid handler (LabCyte Inc.) into black 384-well microtiter plates (Corning). All test compounds were tested at 10 μM; positive control 1 was tested at 250 nM. DMSO was used as a negative control. Overnight cultures (2 mL) of WT S. aureus (RN6390b) were grown at 37° C. with shaking at 200 rpm. These cultures were diluted 1:500 (v/v) in fresh BHI medium, at which point vesicle solutions were added to a final concentration of 1 mM phospholipid (as determined by ^31P NMR analyses). This vesicle-cell mixture was then added to the 384-well microtiter plates with a Multidrop 384 liquid-dispensing robot (Thermo Scientific) for a total volume of 50 μL per well. Plates were incubated statically for ˜24 hr at 37° C., at which point fluorescence (excitation 483, emission 530) and OD600 (absorbance at 600 nm) measurements were made using a CLARIOstarR Plus microtiter plate reader (BMG Labtech) running MARS data analysis software. Scatter plots were generated using the Collaborative Drug Discovery Vault informatics platform. […] Fluorescence (excitation 510, emission 544) and OD600 measurements were acquired with a PerkinElmer EnVision microtiter plate reader running Envision Manager software. […]

[3] = test system: P. aeruginosa; assay: P. aeruginosa growth (OD600); type: cell-based; conditions: P. aeruginosa WT and QS mutant with vesicles, 12 hr
Procedure: as §3

[4] = test system: WT P. aeruginosa (PAO1-PGSC); assay: Microtiter plate (96-well) vesicle lysis assay with WT P. aeruginosa; type: cell-based
Procedure: as §1, §2
Microtiter plate vesicle lysis assays. Portions of media (2 or 10 mL) were inoculated with individual bacterial colonies and allowed to shake overnight. […]

[5] = test system: agr; assay: agr YFP transcriptional reporter assay (S. aureus AH1677 with pDB59); type: cell-based
Procedure: Bacterial strains and culture. All bacteria were grown at 37° C. with 200 rpm shaking unless otherwise specified. S. aureus and P. aeruginosa were grown in BHI medium and LB medium, respectively. S. aureus AH1677 (with an agr-YFP reporter plasmid) and P. aeruginosa PAO1-PGSC (with a plasI-LVAgfp reporter plasmid) were used as QS transcriptional reporters and grown with 10 μg/mL chloramphenicol and 300 μg/mL carbenicillin, respectively. All other strains were grown without supplemental antibiotic. S. aureus RN6390b and P. aeruginosa PAO1-PGSC were used as WT strains in vesicle lysis experiments, while S. aureus RN9222 and P. aeruginosa PAO-JG35 were used as QS mutants. RN9222 was grown without antibiotic as it was not used as a reporter strain (i.e., it served only as QS mutant).
High-throughput screening and follow-up analysis protocols. Test compounds and positive control 1 were delivered in 2.5 nL aliquots of DMSO with an Echo 550 liquid handler (LabCyte Inc.) into black 384-well microtiter plates (Corning). All test compounds were tested at 10 μM; positive control 1 was tested at 250 nM. DMSO was used as a negative control. Overnight cultures (2 mL) of WT S. aureus (RN6390b) were grown at 37° C. with shaking at 200 rpm. These cultures were diluted 1:500 (v/v) in fresh BHI medium, at which point vesicle solutions were added to a final concentration of 1 mM phospholipid (as determined by ^31P NMR analyses). This vesicle-cell mixture was then added to the 384-well microtiter plates with a Multidrop 384 liquid-dispensing robot (Thermo Scientific) for a total volume of 50 μL per well. Plates were incubated statically for ˜24 hr at 37° C., at which point fluorescence (excitation 483, emission 530) and OD600 (absorbance at 600 nm) measurements were made using a CLARIOstarR Plus microtiter plate reader (BMG Labtech) running MARS data analysis software. Scatter plots were generated using the Collaborative Drug Discovery Vault informatics platform. The dose-response experiment using the vesicle lysis assay was performed in a 384-well plate in technical duplicate with compound concentrations of 0.1, 0.25, 0.5, 1, 2.5, 5, 10, and 20 μM. Dose-response curves were generated using variable slope (4 parameter) non-linear regression analysis for compound inhibition using GraphPad Prism software (v. 9). Analysis of the QS modulatory activity of the HTS hits and 6 (savirin) was performed using the S. aureus YFP transcriptional reporter strain. HTS hits were purchased directly from Life Chemicals, Inc. DMSO stock solutions (10 mM) of each compound were prepared and stored at −20° C. Serial dilutions (1:3) were prepared from the stock solutions in DMSO, and 2 μL aliquots of the resulting dilutions were added to the wells of black 96-well microtiter plates (Corning). Overnight cultures of the S. aureus reporter strain (2 mL) were grown at 37° C. with shaking at 200 rpm. Cultures were diluted 1:50 (v/v) into fresh BHI medium, and 198 μL of this diluted culture were added to each well containing compound, for a total volume of 200 μL per well. All plates contained a vehicle control consisting of 2 μL of DMSO and 198 μL of culture and a media control consisting of 200 μL BHI. Plates were incubated for ˜24 hours at 37° C. with shaking at 200 rpm. Fluorescence (excitation 510, emission 544) and OD600 measurements were acquired with a PerkinElmer EnVision microtiter plate reader running Envision Manager software. Background fluorescence from BHI control was subtracted from raw fluorescence reads, OD600 corrected, and finally normalized to vehicle control. Dose-response curves and IC50 values were generated using 3-parameter non-linear regression analysis for compound inhibition using GraphPad Prism software (v. 9). All compounds were tested in technical triplicate with at least 3 biological replicates.

[6] = Solubility in DMSO and aqueous solutions

Q: With `CC[C@H](C)[C@H](N)C(=O)N[C@@H](CC(N)=O)C(=O)N[C@H]1CSC(=O)[C@H](CC(C)C)NC(=O)[C@H](CC(C)C)NC(=O)[C@H](Cc2ccccc2)NC(=O)[C@H](C)NC1=O` [Compound 1, AIP III D4A] (H-INCAFLL; thioester 3-C) as the compound, how does the “effect on vesicle lysis (calcein fluorescence over 12 hr)” value ([1]; 100 nM 1, 10 μM 5, 20 μM 6, 10 μM AIP) read?
A: wholly abrogated vesicle lysis; also recorded: repress vesicle lysis

Q: And the “effect of increasing concentration on onset of calcein leakage” value ([1]; 3-fold dilutions starting at 100 nM)?
A: increases in the times required for the onset of calcein leakage

Q: What about the “calcein leakage with agr inhibitors at equivalent concentration” value ([1]; all compounds at 100 nM, 12 hr) of the same compound?
A: completely prevent calcein leakage

Q: What about the “impact on cell growth” value ([2]; S. aureus WT and QS mutant with vesicles, 12 hr) of the same compound?
A: minimal impact on cell growth

Q: Which results are given for `CCCCCCCCCC(=O)CC(=O)Nc1ccccc1` [Compound 7, V-06-018]?
A: effect on bacterial growth [3]: inhibit growth mildly at later time points; delay of vesicle lysis relative to vehicle controls ([4]; 100 μM 7 and 8): approximately two; delay of the onset of vesicle lysis ([4]; 100 μM 7 and 8, FIG. 7C): approximately 2 hr

Q: Which results are given for `O=C(Nc1nc2c(s1)CN(C(=O)Nc1cccc(Cl)c1)CC2)c1ccsc1` [Compound 11, N-(3-chlorophenyl)-2-(thiophene-3-carboxamido)-6,7-dihydrothiazolo[5,4-c]pyridine-5(4H)-carboxamide]?
A: agr inhibition in agr transcriptional reporter assay ([5]; S. aureus agr YFP reporter): near maximal agr inhibitors; IC50 ([5]; Staphylococcus aureus, 24 h, read-out: IC50 in the agr reporter assay): 700 nM; solubility in DMSO and aqueous solutions [6]: readily soluble; inhibition of cellular growth ([2]; S. aureus, HTS hits): do not inhibit cellular growth
